Tested on: rodent lifetime carcinogenesis bioassay, tumor incidence TD50
Assay: carcinogenic potency in animals, long-term in vivo studies, CPDB compilation (AID 1745844)
Conditions: rat, strain Fischer 344, males, in drinking water, dosed 88 weeks, study length 92 weeks

COc1cc(-c2ccc(N)c(OC)c2)ccc1N
TD50 (site: adrenal medulla, lesion: pheochromocytoma benign, bilateral + pheochromocytoma, malignant + pheochromocytoma, benign): 2.11 mg/kg/day | TD50 (site: all sites + colon, ascending + cecum + colon + colon, descending + duodenum + ileum + jejunum + liver + palate + pharynx + preputial gland + rec, lesion: mesothelioma, benign + mesothelioma, malignant + adenomatous polyp + mucinous cystadenocarcinoma + adenocarcinoma + hepatocellular): 0.677 mg/kg/day | TD50 (site: all sites, lesion: mesothelioma, benign + mesothelioma, malignant): 27.4 mg/kg/day | TD50 (site: all sites, lesion: mononuclear-cell leukemia): 2.5 mg/kg/day | TD50 (site: any site (literature study), lesion: several types, types named in the paper): 0.565 mg/kg/day | TD50 (site: brain + cerebellum, cerebrum + cerebrum + cerebellum, lesion: astrocytoma, malignant): 10.9 mg/kg/day | TD50 (site: cecum + colon + colon, descending + rectum, lesion: mucinous cystadenocarcinoma + adenocarcinoma): 38 mg/kg/day | TD50 (site: colon, ascending + cecum + colon + colon, descending + rectum, lesion: adenomatous polyp + mucinous cystadenocarcinoma + adenocarcinoma): 9.91 mg/kg/day | TD50 (site: colon, ascending + colon, descending + rectum, lesion: adenomatous polyp): 13.6 mg/kg/day | TD50 (site: duodenum + ileum + jejunum, lesion: adenocarcinoma + mucinous cystadenocarcinoma): 8.44 mg/kg/day | TD50 (site: liver, lesion: hepatocellular adenoma + hepatocellular carcinoma + neoplastic nodule): 7.8 mg/kg/day | TD50 (site: liver, lesion: hepatocellular carcinoma + neoplastic nodule): 7.8 mg/kg/day | TD50 (site: liver, lesion: neoplastic nodule): 12.4 mg/kg/day | TD50 (site: palate + pharynx + tongue, lesion: squamous-cell carcinoma + squamous-cell papilloma): 4.22 mg/kg/day | TD50 (site: palate, lesion: squamous-cell carcinoma + squamous-cell papilloma): 8.21 mg/kg/day | TD50 (site: palate, lesion: squamous-cell papilloma): 8.35 mg/kg/day | TD50 (site: pharynx + tongue, lesion: squamous-cell papilloma): 4.49 mg/kg/day | TD50 (site: preputial gland, lesion: adenoma + adenoma, bilateral + carcinoma + carcinoma, bilateral): 1.78 mg/kg/day | TD50 (site: preputial gland, lesion: adenoma + adenoma, bilateral): 3.28 mg/kg/day | TD50 (site: preputial gland, lesion: carcinoma + carcinoma, bilateral): 4.65 mg/kg/day | TD50 (site: skin, lesion: basal-cell adenoma + basal-cell carcinoma + sebaceous gland carcinoma + sebaceous adenoma): 0.767 mg/kg/day | TD50 (site: skin, lesion: basal-cell adenoma + basal-cell carcinoma): 0.77 mg/kg/day | TD50 (site: skin, lesion: basal-cell adenoma + sebaceous adenoma): 0.785 mg/kg/day | TD50 (site: skin, lesion: basal-cell adenoma): 0.789 mg/kg/day | TD50 (site: skin, lesion: basal-cell carcinoma + sebaceous gland carcinoma): 6.5 mg/kg/day | TD50 (site: skin, lesion: basal-cell carcinoma): 6.55 mg/kg/day | TD50 (site: skin, lesion: keratoacanthoma): 9.13 mg/kg/day | TD50 (site: skin, lesion: sebaceous gland carcinoma + sebaceous adenoma): 24.6 mg/kg/day | TD50 (site: skin, lesion: squamous-cell carcinoma + squamous-cell papilloma): 2.01 mg/kg/day | TD50 (site: skin, lesion: squamous-cell carcinoma): 2.35 mg/kg/day | TD50 (site: skin, lesion: squamous-cell papilloma): 6.6 mg/kg/day | TD50 (site: subcutaneous tissue, lesion: fibroma + neurofibroma): 5.19 mg/kg/day | TD50 (site: subcutaneous tissue, lesion: fibroma): 13.9 mg/kg/day | TD50 (site: subcutaneous tissue, lesion: fibrosarcoma + fibroma + neurofibroma + sarcoma): 6.49 mg/kg/day | TD50 (site: subcutaneous tissue, lesion: fibrosarcoma + fibroma): 13.6 mg/kg/day | TD50 (site: testis, lesion: interstitial-cell adenoma, bilateral + interstitial-cell adenoma): 0.612 mg/kg/day | TD50 (site: thyroid gland, lesion: c-cell adenoma + c-cell carcinoma): 4.7 mg/kg/day | TD50 (site: thyroid gland, lesion: c-cell adenoma): 6.92 mg/kg/day | TD50 (site: tongue, lesion: squamous-cell carcinoma + squamous-cell papilloma): 8.25 mg/kg/day | TD50 (site: tongue, lesion: squamous-cell papilloma): 9.16 mg/kg/day

Reference: PubChem BioAssay AID1745844 (Carcinogenic Potency Database (CPDB), 2022)
